Our source for the GI50 and TGI values is PubChem BioAssay (NCI).

“And” between values parts separate entries of the source, which are not always exact repeats. Equal values may be shown once.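 All cell lines were grown in 96-well plates and treated with compound for 48 hours. GI50: concentration for 50% inhibition of growth. TGI: concentration producing complete growth inhibition.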

The experiment deals with MDA-MB-468 breast. Briefly: NCI-60 cell line screen, 48 h.
With `CN(C)Cc1ccc(C(=O)Nc2ccc3ncnc(Nc4ccc(Oc5cccc(F)c5)c(Cl)c4)c3c2)cc1`, the GI50 is 1290 nM and the TGI worked out at 2790 nM.

With `COc1ccc(-c2nc(-c3cn(C)c4ncccc34)cs2)cc1`, the GI50 was 3830 nM and the TGI was more than 100000 nM.

Take `CCOC(=O)Oc1c(OC)cc(C(=O)O[C@@H]2C[C@@H]3CN4CCc5c([nH]c6cc(OC)ccc56)[C@H]4C[C@@H]3[C@H](C(=O)OC)[C@H]2OC)cc1OC`: the GI50 is 8130 nM and the TGI came to 23300 nM.

With `Nc1nc(-c2cccc([N+](=O)[O-])c2)c(N=Nc2ccc(Br)cc2)s1`, the GI50 was 11100 nM and the TGI came to 34200 nM.

For the compound `O=C(NC(=S)Nc1ccc(Cl)cc1)c1ccccc1`, the GI50 is 2560 nM and the TGI was more than 85300 nM.

In the case of `O=C(Nc1ccc(Cl)cc1)c1cc2ccccc2cc1O`, the GI50 is 1610 nM and the TGI is 7030 nM.

Take `Cc1[nH]c(/C=C2\C(=O)Nc3ccc(F)cc32)c(C)c1C(=O)NC[C@H](O)CN1CCOCC1`: the GI50 was more than 10000 nM and the TGI was more than 10000 nM.

For the compound `O=C(Oc1ccc(CCl)cc1)c1ccccc1`, the GI50 is 142 nM and the TGI is 325 nM.

Regarding `O=C1C=Cc2ccccc2/C1=C/c1[nH]c(=O)[nH]c1O`, the GI50 is 2660 nM and the TGI was found to be 7630 nM.

`O=C1CCC2(C=C(Br)C(=O)C(Br)=C2)O1`: the GI50 is 1640 nM and the TGI came to 4290 nM.

As to `COc1cc(/C=C/C(=O)c2ccc(Cl)cc2)ccc1OS(=O)(=O)c1ccc(C)cc1`, the GI50 was 8430 nM and the TGI came out at 32100 nM.

Take `CC1(C)N=C(N)N=C(N)N1c1cc(Cl)ccc1Cl`: the GI50 is 28600 nM and the TGI is more than 100000 nM.

As to `CCN(CC)CCCCCCCNc1c2ccc(Cl)cc2nc2ccc(OC)cc12`, the GI50 was 1340 nM and the TGI came to 2860 nM.

In the case of `COc1ccc(/C=C\c2cc(OC)c(OC)c(OC)c2)cc1OCC(=O)Nc1nc2ccc(C(F)(F)F)cc2s1`, the GI50 is 2160 nM and the TGI was determined as 6250 nM.

Consider `N=C(N)CCCCCCCCC(=N)N`, for which the GI50 is 10100 nM and the TGI is more than 100000 nM.

Take `O=C(Nc1ncc(Cc2ccccc2Cl)s1)c1ccc2c(c1)OCCO2`: the GI50 was 462 nM and the TGI is more than 30600 nM.

Regarding `Cc1ccc2c(=O)c3cccc(CC(=O)O)c3oc2c1C`, the GI50 is more than 100000 nM and the TGI is more than 100000 nM.

On to `COC(=O)/C(=C\c1c(C)[nH]c2ccccc12)S(=O)(=O)c1ccccc1`, for which the GI50 is 6250 nM and the TGI is more than 100000 nM.

Regarding `CNC(=O)c1cccc(-c2ccc3c(N4CCOC[C@@H]4C)nc(N4CCOC[C@@H]4C)nc3n2)c1`, the GI50 was 43.6 nM and 116 nM and 68.1 nM; the TGI was 473 nM and 558 nM and 499 nM.

For `S=C(Nc1ccc(Cl)cc1)Nc1ccc(Cl)cc1` (tested in a mixture with another compound), the GI50 was 1700 nM and the TGI came out at 5110 nM.

Consider `C[C@]12CC[C@@H]3c4ccc(O)cc4CC[C@H]3[C@@H]1CC[C@@H]2NS(=O)(=O)Cc1ccc(Cl)cc1`, for which the GI50 was 3630 nM and the TGI is 16700 nM.

For the compound `O=C(Nc1cccc(-c2nc(-c3ccc(NC(=O)c4cccs4)cc3Cl)no2)c1)Nc1ccc(NC(=O)C2CC2)c(C(F)(F)F)c1`, the GI50 is 181 nM and the TGI came to 394 nM.

For the compound `C#C[C@]1(O)CC[C@H]2[C@@H]3CC=C4c5sc(Nc6cc(Cl)ccc6OC)nc5CC[C@]4(C)[C@H]3CC[C@@]21C`, the GI50 was 1690 nM and the TGI worked out at 4650 nM.

For the compound `S=C(N/N=C/c1ccccn1)Nc1ccccn1`, the GI50 is 1280 nM and the TGI stood at 5760 nM.

As to `CCC1=Cc2c(OC)cccc2OC12C=Cc1c(OC)cccc1O2` (stereo unspecified), the GI50 is 951 nM and the TGI is more than 100000 nM.

As for `Cc1ccc2c(N)c(C(=O)N[C@H]3CCc4cc(N5CC6CCC(C5)N6)ccc4C3)sc2n1`, the GI50 was 579 nM and the TGI came out at 2070 nM.

For the compound `Cc1cc2c(F)c(Oc3ncnn4cc(OC[C@@H](C)OC(=O)[C@H](C)N)c(C)c34)ccc2[nH]1`, the GI50 is 9230 nM and the TGI came to 21800 nM.

With `C=C1C(=O)O[C@H]2[C@H]1CC/C(Cn1cc(-c3ccccc3)nn1)=C\CC[C@@]1(C)O[C@@H]21`, the GI50 was 953 nM and the TGI amounted to 1970 nM.

Take `O=C(NOCC1CC1)c1ccc(F)c(F)c1Nc1ccc(I)cc1Cl`: the GI50 was 2670 nM and the TGI was found to be 8210 nM.

Turning to `COc1ccc(-c2cn[nH]c2-c2cc(OC)c(OC)c(OC)c2)cc1N`, the GI50 is < 10 nM and 31.4 nM; the TGI is more than 100000 nM.

On to `COc1ccc(-c2nc(-c3ccccc3)c(-c3ccccc3)n2C2CC2)cc1OC1CCCC1`, for which the GI50 is 66800 nM and the TGI was more than 165000 nM.

As to `Cc1nc2cccc(NCc3ccc(C(=O)NO)cc3)c2c(=O)n1-c1ccccc1`, the GI50 is 1480 nM and the TGI worked out at 3100 nM.

Turning to `CC(NNC(=S)N1CCCCCC1)c1ccc2ccccc2n1` (stereo unspecified), the GI50 is 603 nM and the TGI was 28100 nM.
